Test results as given in patent US11779594B2, “Compositions for the treatment of epithelial lesions” (INTERNATIONAL HEALTH SCIENCE S.R.L., priority 2019, dated 2023).

Tested on: COLO-680N esophagus cells
Assay: scratch wound healing of COLO-680N esophagus cell monolayer irritated with BSC medium
Assay type: cell-based, human
Details: COLO-680N cells treated with BSC; vs placebo, P<0.05 (FIG. 5)
Method: The adhesive, barrier, soothing and repairing effects of a composition of the invention was studied in different experimental models of esophageal epithelial cells (i.e. CP-A and COLO-680N) by simulating in vitro the damage induced by gastric content on the esophagus.
To this aim, we incubated the cell monolayer with a medium (named BSC) containing bile salts cocktail, pepsin and pH 2.5 (thus simulating the gastric juice).
The significant repairing effect was assessed as described in FIG. 1-5. Confluent monolayers of COLO-680N esophagus cells, cultured in a 24 well plate, were scraped with a pipette tip and, after washing twice with PBS, were incubated with BSC (irritant medium simulating the gastro-intestinal juice) or culture medium alone as a negative control. […] Wound closure (healing) was evaluated up to 24 h under a Leica DMIL inverted microscope (Leica Microsystem) and images were collected using a Canon Powershot A640 digital camera (Canon). The cellular movements, distance and cell number were used for quantitative evaluations. The images were analyzed by ImaJ software. Results were analyzed by statistical method for assessing the significance compared to both controls and single component of the invention; the differences were considered significant for p<0.05 (FIG. 5).

sodium hyaluronate [HA] was tested, and the “quantified wound healing effect (number of cells, movements, distance covered)” value was “do not exert wound healing effect”.
